Experimental data taken from article PMC6522510 (Nature Communications, 2019).

Columns and labels:
[1] = tested on: U937; test: cells; parameters: species or system AML cell lines (8); Secondary HTS, 10-point dose-response in triplicate, Cell Titer Glo viability, four-parameter fit EC50; conditions: Homo sapiens, U-937, 72 h, read-out: U937
[2] = tested on: CMS; test: cells; parameters: species or system AML cell lines (8); Secondary HTS, 10-point dose-response in triplicate, Cell Titer Glo viability, four-parameter fit EC50; conditions: 72 h, read-out: CMS
[3] = tested on: CHRF288-11; test: cells; parameters: species or system AML cell lines (8); Secondary HTS, 10-point dose-response in triplicate, Cell Titer Glo viability, four-parameter fit EC50; conditions: 72 h, read-out: CHRF288-11
[4] = tested on: MOLM-13; test: cells; parameters: species or system AML cell lines (8); Secondary HTS, 10-point dose-response in triplicate, Cell Titer Glo viability, four-parameter fit EC50; conditions: Homo sapiens, MOLM-13, 72 h, read-out: MOLM-13
[5] = tested on: M07e; test: cells; parameters: species or system AML cell lines (8); Secondary HTS, 10-point dose-response in triplicate, Cell Titer Glo viability, four-parameter fit EC50; conditions: M-07e, 72 h, read-out: M07e
[6] = tested on: MV4-11; test: cells; parameters: species or system AML cell lines (8); Secondary HTS, 10-point dose-response in triplicate, Cell Titer Glo viability, four-parameter fit EC50; conditions: Homo sapiens, MV4-11, 72 h, read-out: MV4-11
[7] = tested on: ML-2; test: cells; parameters: species or system AML cell lines (8); Secondary HTS, 10-point dose-response in triplicate, Cell Titer Glo viability, four-parameter fit EC50; conditions: Homo sapiens, ML-2, 72 h, read-out: ML-2
[8] = tested on: CMK; test: cells; parameters: species or system AML cell lines (8); Secondary HTS, 10-point dose-response in triplicate, Cell Titer Glo viability, four-parameter fit EC50; conditions: Homo sapiens, CMK, 72 h, read-out: CMK
[9] = tested on: MV4-11; test: Secondary dose-response HTS, Cell Titer Glo; type: cell-based, human; conditions: Homo sapiens; secondary high-throughput screen; MV4-11; read-out: average effective concentration, MV4-11
[10] = tested on: U937; test: Secondary dose-response HTS, Cell Titer Glo; type: cell-based, human; conditions: Homo sapiens, U-937; secondary high-throughput screen; U937; read-out: average effective concentration, U937

Structure (SMILES)	EC50 [1] [µM]	EC50 [2] [µM]	EC50 [3] [µM]	EC50 [4] [µM]	EC50 [5] [µM]	EC50 [6] [µM]	EC50 [7] [µM]	EC50 [8] [µM]	EC50 [9] [µM]	EC50 [10] [µM]
OC[C@H]1NC[C@H](O)[C@@H](O)[C@H]1O	> 10	> 10	> 10	> 10	> 10	> 10	> 10	> 10	–	–
CC1=C(CC(=O)O)c2cc(F)ccc2/C1=C\c1ccc([S+](C)[O-])cc1 (centres unmarked)	> 10	> 10	> 10	> 10	> 10	> 10	> 10	> 10	–	–
C=C1C(=O)O[C@@H](CCC)[C@@H]1C(=O)O (racemic) [SJ000784258, BUTYROLACTONE 3]	> 10	> 10	> 10	1.8	> 10	> 10	> 10	> 10	–	–
COc1ccc(C[C@H](NC(=O)[C@H](C)NC(=O)CN2CCOCC2)C(=O)N[C@@H](Cc2ccccc2)C(=O)C2(C)CO2)cc1 (stereo in doubt) [SJ000834147, ONX-0914]	0.134	0.11	0.169	0.0727	0.0789	0.046	0.0426	0.23	–	–
C=C1CCCC2(C)C[C@H]3OC(=O)C(=C)[C@H]3CC12 (stereo in doubt) [SJ000834159, ISOHELENIN]	8.2	5.4	6.7	5.9	> 10	> 10	6.6	5.2	–	–
CCC1(c2ccc(N)cc2)CCC(=O)NC1=O (centres unmarked) [AMINOGLUTETHIMIDE]	> 10	> 10	> 10	> 10	> 10	> 10	> 10	> 10	–	–
S=C(NCc1ccc2c(c1)OCO2)N1CCN(c2ncnc3c2oc2ccccc23)CC1 [AMUVATINIB]	> 10	> 10	> 10	> 10	> 10	> 10	> 10	> 10	–	–
CC(C)(C#N)c1cc(Cn2cncn2)cc(C(C)(C)C#N)c1 [ANASTROZOLE]	> 10	> 10	> 10	> 10	> 10	> 10	> 10	> 10	–	–
Cc1cc([C@@H](C)Nc2ccccc2C(=O)O)c2nc(N3CCOCC3)cc(=O)n2c1 [AZD6482]	> 10	> 10	> 10	> 10	> 10	> 10	> 10	> 10	–	–
C[C@H]1C[C@H]2[C@@H]3CCC4=CC(=O)C=C[C@]4(C)[C@@]3(F)[C@@H](O)C[C@]2(C)[C@@]1(O)C(=O)CO [BETAMETHASONE]	> 10	> 10	> 10	> 10	> 10	> 10	> 10	> 10	–	–
O=c1[nH]c(=O)n([C@H]2C[C@H](O)[C@@H](CO)O2)cc1/C=C/Br [BRIVUDINE]	> 10	> 10	> 10	> 10	> 10	> 10	> 10	> 10	–	–
CCc1cc2c(cc1N1CCC(N3CCOCC3)CC1)C(C)(C)c1[nH]c3cc(C#N)ccc3c1C2=O [CH5424802]	> 10	> 10	> 10	> 10	> 10	> 10	> 10	> 10	–	–
Nc1nc(OCc2ccccc2)c2nc[nH]c2n1 [Compound O6-BENZYLGUANINE]	> 10	> 10	> 10	> 10	> 10	> 10	> 10	> 10	–	–
CC(C)(C)c1nc(-c2cccc(NS(=O)(=O)c3c(F)cccc3F)c2F)c(-c2ccnc(N)n2)s1 [DABRAFENIB]	> 10	> 10	> 10	> 10	> 10	> 10	> 10	> 10	–	–
Cn1cc(C2=C(c3cn(C4CCN(Cc5ccccn5)CC4)c4ccccc34)C(=O)NC2=O)c2ccccc21 [ENZASTAURIN]	> 10	> 10	> 10	> 10	> 10	> 10	> 10	> 10	–	–
CC(C(=O)O)c1ccc(-c2ccccc2)c(F)c1 (centres unmarked) [FLURBIPROFEN]	> 10	> 10	> 10	> 10	> 10	> 10	> 10	> 10	–	–
CC(C)n1c(/C=C/C(O)CC(O)CC(=O)O)c(-c2ccc(F)cc2)c2ccccc21 (centres unmarked) [FLUVASTATIN]	> 10	> 10	> 10	> 10	> 10	> 10	> 10	> 10	–	–
Cc1c(Cn2c(C)nc3c(C(=O)O)cc(N4CCOCC4)cc32)cccc1C(F)(F)F [GSK-2636771]	> 10	> 10	> 10	> 10	> 10	> 10	> 10	> 10	–	–
CCN(CCO)CCCC(C)Nc1ccnc2cc(Cl)ccc12 (centres unmarked) [HYDROXYCHLOROQUINE]	> 10	> 10	> 10	> 10	> 10	> 10	> 10	> 10	–	–
CC[C@H](Nc1ncnc2[nH]cnc12)c1nc2cccc(F)c2c(=O)n1-c1ccccc1 [IDELALISIB]	> 10	> 10	> 10	> 10	> 10	> 10	> 10	> 10	–	–
O[C@@H]1CO[C@H]2[C@@H]1OC[C@@H]2O [ISOSORBIDE]	> 10	> 10	> 10	> 10	> 10	> 10	> 10	> 10	–	–
CS(=O)(=O)CCNCc1ccc(-c2ccc3ncnc(Nc4ccc(OCc5cccc(F)c5)c(Cl)c4)c3c2)o1 [LAPATINIB]	> 10	> 10	> 10	> 10	> 10	> 10	> 10	> 10	–	–
Nc1nc(OCc2cc(Br)cs2)c2[nH]cnc2n1 [LOMEGUATRIB]	> 10	> 10	> 10	> 10	> 10	> 10	> 10	> 10	–	–
Cc1cccc(-c2nn3c(c2-c2ccnc4ccc(C(N)=O)cc24)CCC3)n1 [LY2157299]	> 10	> 10	> 10	> 10	> 10	> 10	> 10	> 10	–	–
Cc1ccc(NC(=O)c2ccc(CN3CCN(C)CC3)cc2)cc1Nc1nc(-c2cccnc2)cs1 [MASITINIB]	–	> 10	> 10	> 10	> 10	–	> 10	> 10	> 10	> 10
S=c1[nH]cnc2nc[nH]c12 [MERCAPTOPURINE]	> 10	> 10	> 10	> 10	> 10	> 10	> 10	> 10	–	–
Clc1ccc(C(c2ccccc2Cl)C(Cl)Cl)cc1 (centres unmarked) [MITOTANE]	> 10	> 10	> 10	> 10	> 10	> 10	> 10	> 10	–	–
O=C(O)CC[C@H]1CC[C@@](c2cc(F)ccc2F)(S(=O)(=O)c2ccc(Cl)cc2)CC1 [MK-0752]	> 10	> 10	> 10	> 10	> 10	> 10	> 10	> 10	–	–
